In patent US20210353624A1, “METHOD OF TREATING CANCER WITH TELOTRISAT OR A PRODRUG THEREOF” (TerSera Therapeutics LLC, priority 2020, published 2021):
Values joined by “and” are separate entries in the source; they are usually repeats but may differ in a detail not shown here. Identical values can stand only once.

Key:
[1] = tested on: locally advanced or metastatic neuroendocrine tumors (NETs); assay: Retrospective single arm chart review (TELEACE): tumor progression, PFS, tumor size; type: in vivo, human; design: patients with progression-free survival (without tumor progression or death) (%) / Progression-free survival: Patients without outcome (%): concentration or dose not given beside the values; settings: for Difference in tumor size between pre and post-TE initiation, Estimate: longitudinal generalized linear regression (GEE), 95% CI (−16.1%, −0.2%), P=0.045, negative = decrease; for patients with progression-free survival (without tumor progression or death) (%) / patients without tumor progression (%): overall population
Excerpt: This example provides a retrospective, single arm study of patients with locally advanced or metastatic neuroendocrine tumors (NETs) and documented carcinoid syndrome (CS). The patients received telotristat ethyl for at least 6 months. […] This example reports progression-free survival (PFS), time to tumor progression, changes in carcinoid syndrome (CS) symptoms, and indictors of overall health.
Patients with poorly differentiated neuroendocrine tumors, mixed tumor types or conflicting clinical trial enrollment were excluded. Descriptive statistics, Kaplan-Meier and Chi-square tests were used to evaluate PFS, tumor progression, changes in CS symptoms, body weight and Eastern Cooperative Oncology Group (ECOG) performance status before and after telotristat ethyl initiation. Subgroup analyses were conducted in patients with the same pre- and post-telotristat ethyl background treatment.
Adults with unresectable locally advanced or metastatic neuroendocrine tumors and evidence of carcinoid syndrome documented in their medical chart were eligible for inclusion if they had received telotristat ethyl for at least 6 months and had any additional carcinoid syndrome and neuroendocrine tumor treatment information available for at least six months after telotristat ethyl initiation or until death. The presence of carcinoid syndrome was based on the participating physician's assessment of information contained in the medical charts. Participating physicians were recruited by a professional recruiting organization (Dynata, Plano, Tex., USA) and had to have treated at least one eligible patient with telotristat ethyl in the past 12 months in order to participate. Eligible records had to have documented tumor size and tumor response assessments before and after telotristat ethyl initiation, including at least two radiological scans in the 12 months before telotristat ethyl and at least one scan after telotristat ethyl initiation. Patients with a histologically poorly differentiated neuroendocrine tumor based on grade (G3) or Ki67 index >20%, mixed tumor types according to physician notes, or documented enrollment in any clinical trial during the 6 months after telotristat ethyl initiation were excluded.
Time to tumor progression was defined as the time from telotristat ethyl initiation to the first documented tumor progression in the medical chart. […] Progression-free survival (PFS) was defined as the time from telotristat ethyl initiation to tumor progression or death. […] Physician-assessed changes in body weight, Eastern Cooperative Oncology Group (ECOG) Performance Status, and CS symptoms including diarrhea, flushing, abdominal pain, nausea and ascites were abstracted from medical charts before and after telotristat ethyl initiation.
In order to evaluate the effect of telotristat ethyl treatment on secondary clinical outcomes, analyses were conducted in the overall population and in a subgroup of patients who had the same documented non-telotristat ethyl neuroendocrine tumor treatment before and after telotristat ethyl initiation. Descriptive statistics summarized patient demographic and clinical characteristics, and changes in body weight and ECOG Performance Status after telotristat ethyl treatment initiation. Kaplan-Meier analyses estimated median time to tumor progression and median PFS. Chi-square test evaluated changes in documented CS symptoms (improved vs same/worsened) before and after telotristat ethyl initiation. All analyses were performed using SAS version 9.4 (SAS Institute, Cary, N.C., USA).
A radiological scan performed immediately before telotristat ethyl initiation was evaluated. A radiological scan performed post-telotristat ethyl was also examined. Paired t-test was used to calculate P-value for tumor size. Statistical significance (P<0.001) was also confirmed using Wilcoxon signed rank test. […]

[2] = tested on: u5-HIAA; assay: Biomarker changes after TE initiation (TELEACE): u5-HIAA; type: in vivo, human; settings: n=22
Method: This example provides the effects of telotristat ethyl treatment on selected patient biomarkers (i.e., u5-HIAA; CgA; 5-HT; and NT-proBNP) in the retrospective, single arm study of Example 4.
The average (SD) duration of documented TE treatment was 12.0 (7.3) months with a median (IQR) of 9.0 (6.8, 15.2) months. In many cases, a patient received a TE dosage of 250 mg three times per day.
The continuous measures of biomarker values pre- and post-TE initiation were described using mean, SD, median, and IQR. The biomarkers were assessed only among patients with complete biomarker assessment results in both pre-TE and post-TE initiation periods. A Wilcoxon signed rank test was used to calculate P-values for the mean change in biomarker value.
Patients with reported biomarker values below, at, or above normal range in pre-TE and post-TE initiation periods were described using proportions and frequencies. The biomarkers were assessed only among patients with complete biomarker assessment results in both pre-TE and post-TE initiation periods. McNemar's test was used to calculate P-values for the differences in paired proportions of patients with values above the upper limit of normal.
To evaluate the relationship between the change in biomarker values (i.e., u5-HIAA; CgA; 5-HT) and the change in tumor progression between the pre- and post-TE periods, Pearson's correlation coefficient was used to assess the correlation between biomarker assessments and tumor sizes and to derive the associated P-values. The correlations were assessed only among patients with complete biomarker assessment results in both pre-TE and post-TE initiation periods. The relationship between biomarker values and tumor sizes during pre-TE and post-TE initiation period was presented using scatterplots.
For the biomarker results below, the pre-TE initiation period is defined as 12 months before the index date (initiation of TE). The assessment closest to the index date during the pre-TE period was reported for each biomarker.
The post-TE initiation period is defined as a period from index date to the earlier of end of treatment with TE or date of chart abstraction. The assessment closest to the date of chart abstraction during the post-TE period was reported for each biomarker.
The data includes patients with reported biomarker values, units, and laboratory ranges during pre- and post-TE initiation periods. It excludes patients who had different biomarker units or laboratory ranges reported pre- and post-TE initiation.
The normal range was defined by reported laboratory lower limit of normal and upper limit of normal.
The values in Table 5-1 have been converted to mg/24 hours based on the following conversion rate: […]. The Wilcoxon signed rank test was used to calculate P-values for the mean change in biomarker values pre- and post-TE initiation.
Table 5-4 is based on patients who had complete biomarker assessment results (u5-HIAA: N=22; 5-HT: N=22) in both pre-TE and post-TE initiation periods. Correlation analysis was not conducted for CgA and NT-proBNP due to small sample sizes for CgA (n=15) and NT-proBNP (n=2). Pearson's correlation coefficient was used to assess the correlation between biomarker assessments and tumor sizes and to derive the associated P-values. Values have been converted to mg/24 hours based on the following conversion rate: […].

[3] = 6 months after TE initiation, listed as TE
[4] = 12 months after TE initiation, listed as TE
[5] = treatment subgroup n=65, 12 months
[6] = treatment subgroup n=65, 18 months

Compound: CCOC(=O)[C@@H](N)Cc1ccc(-c2cc(O[C@H](c3ccc(Cl)cc3-n3ccc(C)n3)C(F)(F)F)nc(N)n2)cc1 [telotristat ethyl, (S)-ethyl 2-amino-3-(4-(2-amino-6-((R)-1-(4-chloro-2-(3-methyl-1H-pyrazol-1-yl)phenyl)-2,2,2-trifluoroethoxy)pyrimidin-4-yl)phenyl)propanoate]
- Tumor size (cm) Change from baseline, Mean ± SD ([1]; N=200, P<0.001): −0.5 ± 1.8 cm
- Tumor size (cm) Post-TE initiation, Mean (IQR) ([1]; N=200, pre-TE 3.5 (2.3, 5.0)): 3.0 (2.0, 4.8) cm
- Tumor size (cm) Post-TE initiation, Mean ± SD ([1]; N=200, pre-TE 3.9 ± 2.2): 3.4 ± 2.3 cm
- patients with improved (responded completely or partially) tumor response post-TE initiation ([1]; among 33 patients with worsened (progressed) tumor response pre-TE initiation): 45%
- average (SD) tumor size reduction ([1]; from scan immediately before TE initiation until last scan post-TE, P<0.001): 0.5 (1.8) cm
- Difference in tumor size between pre and post-TE initiation, Estimate [1]: −8.5%
- Difference in tumor size between pre and post-TE initiation, Estimate ([1]; listed as TE): −8.5%
- median progression-free survival ([1]; overall population n=200, Kaplan-Meier, IQR 17.8, 39.8): 23.7 months
- median time to tumor progression ([1]; overall population n=200, Kaplan-Meier, IQR 18.7, 39.8): 39.8 months
- patients with progression-free survival (without tumor progression or death) (%) ([1]; 6 months after TE initiation): 90% and 89.5%
- patients without tumor progression (%) ([1]; 6 months after TE initiation): 92%
- patients with progression-free survival (without tumor progression or death) (%) [1, 3]: 89.5%
- patients without tumor progression (%) [1, 3]: 92.0%
- patients with progression-free survival (without tumor progression or death) (%) ([1]; 12 months after TE initiation): 80% and 79.9%
- patients without tumor progression (%) ([1]; 12 months after TE initiation): 87% and 86.8%
- patients with progression-free survival (without tumor progression or death) (%) [1, 4]: 79.9%
- patients without tumor progression (%) [1, 4]: 86.8%
- patients with progression-free survival (without tumor progression or death) (%) ([1]; 18 months after TE initiation): 72.1%
- patients without tumor progression (%) ([1]; 18 months after TE initiation): 78.3%
- Tumor progression: Patients without outcome (%) ([1]; treatment subgroup n=65 (same background treatment pre/post TE), 6 months): 100.0%
- Progression-free survival: Patients without outcome (%) ([1]; treatment subgroup n=65, 6 months): 96.9%
- Progression-free survival: Patients without outcome (%) [1, 5]: 87.5%
- Tumor progression: Patients without outcome (%) [1, 5]: 90.4%
- Progression-free survival: Patients without outcome (%) [1, 6]: 87.5%
- Tumor progression: Patients without outcome (%) [1, 6]: 90.4%
- u5-HIAA Below normal range Post-TE, n (%) ([2]; pre-TE 0 (0)): 0 (0) n (%)
- u5-HIAA At normal range Post-TE, n (%) ([2]; pre-TE 1 (4.5)): 2 (9.1) n (%)
- u5-HIAA Above normal range Post-TE, n (%) ([2]; pre-TE 21 (95.5), P=0.317): 20 (90.9) n (%)
- u5-HIAA Measurement (mg/24 hours) Post-TE Initiation, Median (IQR) ([2]; pre-TE 42.0 (25.0, 65.0)): 25.0 (16.0, 44.0) mg/24 hours
- u5-HIAA Measurement (mg/24 hours) Post-TE Initiation, Mean ± SD ([2]; pre-TE 72.5 ± 98.0, P<0.001): 43.6 ± 54.7 mg/24 hours
